B1: sh211-3G: sh211 embedded in the miRNA-3G backbone, SEQ ID NO: 25; Pol-II (EF1a) driven (nucleic acid)
chain: CCGGATCAACGCCCTAGGTTTATGTTTGGATGAACTGACATACGCGTATCCGTCTTTTAAATCAAGGTCATAACCGTAGTGAAATATATATTAAACAGGTTATGACCTTGATTTAAAATACGGTAACGCGGAATTCGCAACTATTTTATCAATTTTTTGCGTCGAC
modifications: Synthetic miRNA211-3G
notes: Pol-II (EF1a) driven

Columns and labels:
Format in all cases: cell-based, human
HPRT [1] = assay: CRISPR knock-in of Pol-II-driven shRNA into CCR5 region of K562 cells, 6-TG selection, HPRT staining; settings: for obvious cytotoxicity in K562 cells: knock-in
Source text: It has been well known that some polymerase III-dependent short-hairpin RNAs have overexpression issues and can induce acute cytotoxicity. […] This is an important concern when considering the use of RNA interference (RNAi) as a potential therapeutic approach, especially in stem cell gene therapy. Here, polymerase II was used as alternative promoter to express microRNA so as to effectuate knockdown of the expression of HPRT. A CRISPR/Cas9 gene editing approach was utilized, and a Cas9 with a single guide RNA (Cas9 RNP) targeting CCR5, together with a single-stranded DNA oligonucleotide donor (ssODN) encoding an HPRT Pol II driven shRNA, was used to enable efficient replacement of the CCR5 locus with a functional HPRT miRNA. […] For knock-in of sh211 and sh734, the obvious cytotoxicity in K562 cells was not observed.

K562 cells = assay: in vitro 6TG selection and stability of transduced K562 cells (VCN, % GFP+); settings: 6TG selected
Protocol: 4) 2×10^5 cells of control K562, 6 samples transduced at dilution factor 32 and 6 samples transduced at dilution factor 1 are reseeded in 6-well plate with 4 mL of RPMI without and with 300 nM of 6-thioguanine, respectively. 2.5×10^6 cells of 6 samples transduced at dilution factor 1 are made through mixing transduced and untransduced cells at ratio of 1:3. Two cell pellets (1×10^6 cells each) for DNA & RNA analysis for these 6 samples will be frozen down. The medium is refreshed every 3-4 days. K562 transduced with TL20cw-7SK/sh734-GFP (dilution factor at 256 and 8) will be included as positive controls.
5) Two cell pellets (1×10^6 cells each) for DNA & RNA analysis for 13 samples including control K562 will be frozen down at day 7/14/21 or even 28(MY). Copy numbers of GbG and sh734 are analyzed. The samples at day 21/28 are optional if the copy numbers of all samples are higher than 95% of expected value for day 14. […]
K562 cells were transduced with sh734 for 21 days before initiating 6TG treatment for 14 days (shaded areas). With reference to FIGS. 49A through 49G, vector copy number (VCN) was determined every two weeks from genomic DNA by multiplex RU5 qPCR and absolute quantitation from a standard curve using lentiviral vector (HIV-1-based LTR R-U5) target and human Apolipoprotein B (ApoB) reference sequences. […]

HPRT [2] = assay: HPRT knockdown in transduced K562 cells (qRT-PCR); settings: after 6TG treatment
Protocol: With reference to FIG. 50, K562 cells were transduced with TL20c-rGbGM-7SK/sh734 or TL20c GbG^M21 days before initiating 6TG treatment. RNA was isolated and qRT-PCRT was performed to determine the number of copies of sh734 relative to RNU38B and normalized to VCN (relative expression/VCN). Relative expression levels of sh734 and HPRT were determined every two weeks post-transduction. The graph illustrated sh734 plotted on the left Y-axis and the percent of HPRT knockdown related to mock transduced cells (HPRT/mock×100) and normalized to VCN plotted on the right Y axis.
K562 cells were transduced with the sh7-GFP mono-vector reporter construct or CAL-H for 21 days before initiating 6TG. RNA was isolated, and qRT-PCR performed to determine the number of copies of sh734 relative to RNU38B and normalized to VCN (relative expression/VCN). FIGS. 51A and 51B illustrates the percent HPRT knockdown relative to mock transduced cells (HPRT/mock×100) normalized to VCN is plotted on the right Y axis. […] 14 days after selection, HPRT levels became undetectable in transduced cultures. 6TG selected K562 cells continued to grow and express sh734 after 3-months in culture (data not shown). […] At day 21, K562 cultures transduced with the sh7-GFP reporter construct were 35% GFP+ and increased to 88% GFP+ cells by day 42 following 6TG treatment.

Molecule	obvious cytotoxicity in K562 cells (HPRT [1])	duration of sh734 expression and function in culture (K562 cells)	HPRT levels (HPRT [2])	HPRT levels (HPRT staining) (HPRT [1]; K562 cells after three weeks of 6-TG selection, control 99%) [%]
sh211: shRNA targeting an HPRT gene, SEQ ID NO: 28 (GGTTATGACCTTGATTTATACCTGACCCATATTAAATCAAGGTCATAACCTTTTT)	not observed			
sh734: shRNA targeting an HPRT gene, SEQ ID NO: 30 (AGGATATGCCCTTGACTATTTGTCCGACATAGTCAAGGGCATATCCTTTTTT)	not observed	greater than 3 months	less than 10 % of untreated cells	
B1				12

Reference: US11795461B2, “Compositions and methods for treating beta-hemoglobinopathies” (CSL Behring Gene Therapy, Inc., priority 2017, dated 2023)
